Measured values: patent US9365522B2, “Pyrazole amide derivative” (AMGEN INC., priority 2015, dated 2016)

Target: T1, ligand binding domain of human ROR gamma (Homo sapiens, UniProt P51449)
T1 construct: NM_001001523; expressed in transfected cells; host or cells: HEK293T
T1 sequence (P51449 247-497 isoform P51449-2): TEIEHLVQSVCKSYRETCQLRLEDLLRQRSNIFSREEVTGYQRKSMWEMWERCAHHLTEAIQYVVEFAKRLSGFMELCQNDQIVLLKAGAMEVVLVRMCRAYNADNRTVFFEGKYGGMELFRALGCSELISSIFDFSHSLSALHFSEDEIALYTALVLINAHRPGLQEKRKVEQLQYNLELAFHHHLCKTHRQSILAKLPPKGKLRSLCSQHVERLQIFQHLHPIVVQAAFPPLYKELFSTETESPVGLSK
Assay: ROR gamma reporter gene assay (GAL4-RORγ LBD luciferase, Dual-Glo)
Type: cell-based
Conditions: HEK293T cells transfected with pM-ROR gamma, 8 concentrations 3.5 nM to 10.5 μM, 24 h incubation; read-out: result (pIC50, inhibition of RORγ transcriptional activity) (converted)
How it was run: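 Transient GAL4-RORγ LBD (aa 247-497) / 5×UAS-luc / pRL-CMV cotransfection in HEK293T, charcoal-stripped 10% FBS. 8-pt dose, 3.5 nM–10.5 μM, 0.075% DMSO final. 24 h, 37 °C, 5% CO2. Dual-Glo firefly/renilla readout; pIC50 from curve fit.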

Structure (SMILES) | IC50
O=C(CN(Cc1cc(F)cc(F)c1)C(=O)c1cnn([C@H]2CC[C@H](C(=O)O)CC2)c1C(F)(F)F)c1c(Cl)nsc1Cl [Example 216, trans-4-(4-((2-(3,5-dichloro-1,2-thiazol-4-yl)-2-oxoethyl)-((3,5-difluorophenyl)methyl)carbamoyl)-5-(trifluoromethyl)pyrazol-1-yl)cyclohexane-1-carboxylic acid] | > 1.05e+06 pM
CC(C)(C)C#CCN(CC(=O)c1c(Cl)cccc1C(F)(F)F)C(=O)c1cnn([C@H]2CC[C@](C)(C(=O)O)CC2)c1C(F)(F)F [Example 217, trans-4-(4-((2-(2-chloro-6-(trifluoromethyl)phenyl)-2-oxoethyl)-(4,4-dimethylpent-2-ynyl)carbamoyl)-5-(trifluoromethyl)pyrazol-1-yl)-1-methylcyclohexane-1-carboxylic acid] | 219000 pM
CC1(C)[C@@H]2C[C@H](N(CC(=O)c3c(Cl)cccc3C(F)(F)F)C(=O)c3cnn([C@H]4CC[C@](C)(C(=O)O)CC4)c3C(F)(F)F)C[C@@H]21 [Example 222, trans-4-(4-((2-(2-chloro-6-(trifluoromethyl)phenyl)-2-oxoethyl)-((1R,3r,5S)-6,6-dimethyl-3-bicyclo[3.1.0]hexanyl)carbamoyl)-5-(trifluoromethyl)pyrazol-1-yl)-1-methylcyclohexane-1-carboxylic acid] | 4170 pM
CC1(C)CC[C@@H](N(CC(=O)c2c(Cl)cncc2Cl)C(=O)c2cnn([C@H]3CC[C@H](C(=O)O)CC3)c2C(F)(F)F)C1 [Example 223, trans-4-(4-((2-(3,5-dichloropyridin-4-yl)-2-oxoethyl)-((1R)-3,3-dimethylcyclopentyl)carbamoyl)-5-(trifluoromethyl)pyrazol-1-yl)cyclohexane-1-carboxylic acid] | 50100 pM
Cc1cc(Cl)c(C(=O)CN(C(=O)c2cnn([C@H]3CC[C@](C)(C(=O)O)CC3)c2C(F)(F)F)C2CCC(C)(C)CC2)c(Cl)c1 [Example 227, trans-4-(4-((2-(2,6-dichloro-4-methylphenyl)-2-oxoethyl)-(4,4-dimethylcyclohexyl)carbamoyl)-5-(trifluoromethyl)pyrazol-1-yl)-1-methylcyclohexane-1-carboxylic acid] | 3980 pM
O=C(CN(Cc1ccc(F)cc1)C(=O)c1cnn([C@H]2CC[C@H](C(=O)O)CC2)c1CC(F)(F)F)c1c(Cl)cncc1Cl [Example 228, trans-4-(4-((2-(3,5-dichloropyridin-4-yl)-2-oxoethyl)-((4-fluorophenyl)methyl)carbamoyl)-5-(2,2,2-trifluoroethyl)pyrazol-1-yl)cyclohexane-1-carboxylic acid] | 195000 pM
CC1(C)CCC(N(CC(=O)c2c(Cl)cncc2Cl)C(=O)c2cnn([C@H]3CC[C@](C)(C(=O)O)CC3)c2C(F)(F)F)CC1 [Example 229, trans-4-(4-((2-(3,5-dichloropyridin-4-yl)-2-oxoethyl)-(4,4-dimethylcyclohexyl)carbamoyl)-5-(trifluoromethyl)pyrazol-1-yl)-1-methylcyclohexane-1-carboxylic acid] | 12900 pM
CC1(C)CCC(N(CC(=O)c2c(Cl)cc(F)cc2Cl)C(=O)c2cnn(C34CCC(C(=O)O)(CC3)CC4)c2C(F)(F)F)CC1 [Example 230, 4-(4-((2-(2,6-dichloro-4-fluorophenyl)-2-oxoethyl)-(4,4-dimethylcyclohexyl)carbamoyl)-5-(trifluoromethyl)pyrazol-1-yl)bicyclo[2.2.2]octane-1-carboxylic acid] | 6610 pM
CC1(C)CCC(N(CC(=O)c2c(Cl)cc(Cl)cc2Cl)C(=O)c2cnn(C34CCC(C(=O)O)(CC3)CC4)c2C(F)(F)F)CC1 [Example 231, 4-(4-((4,4-dimethylcyclohexyl)-(2-oxo-2-(2,4,6-trichlorophenyl)ethyl)carbamoyl)-5-(trifluoromethyl)pyrazol-1-yl)bicyclo[2.2.2]octane-1-carboxylic acid] | 10700 pM
COc1cccc(Cl)c1C(=O)CN(C(=O)c1cnn([C@H]2CC[C@](C)(C(=O)O)CC2)c1C(F)(F)F)[C@H]1C[C@@H]2[C@H](C1)C2(C)C [Example 232, trans-4-(4-((2-(2-chloro-6-methoxyphenyl)-2-oxoethyl)-((1R,3r,5S)-6,6-dimethyl-3-bicyclo(3.1.0)hexanyl)carbamoyl)-5-(trifluoromethyl)pyrazol-1-yl)-1-methylcyclohexane-1-carboxylic acid] | 17000 pM
CC(C)(C)CN(CC(=O)c1c(Cl)cncc1Cl)C(=O)c1cnn(C23CCC(C(=O)O)(CC2)CC3)c1C(F)(F)F [Example 233, 4-(4-((2-(3,5-dichloropyridin-4-yl)-2-oxoethyl)-(2,2-dimethylpropyl)carbamoyl)-5-(trifluoromethyl)pyrazol-1-yl)bicyclo[2.2.2]octane-1-carboxylic acid] | 15800 pM
C[C@]1(C(=O)O)CC[C@H](n2ncc(C(=O)N(CC(=O)c3c(Cl)cccc3C(F)(F)F)CC3CC4(CC4)C3)c2C(F)(F)F)CC1 [Example 235, trans-4-(4-((2-(2-chloro-6-(trifluoromethyl)phenyl)-2-oxoethyl)-(spiro[2.3]hexan-5-ylmethyl)carbamoyl)-5-(trifluoromethyl)pyrazol-1-yl)-1-methylcyclohexane-1-carboxylic acid] | 13200 pM
Cc1cc(Cl)c(C(=O)CN(C(=O)c2cnn(C34CCC(C(=O)O)(CC3)CC4)c2C(F)(F)F)C2CCC(C)(C)CC2)c(Cl)c1 [Example 236, 4-(4-((2-(2,6-dichloro-4-methylphenyl)-2-oxoethyl)-(4,4-dimethylcyclohexyl)carbamoyl)-5-(trifluoromethyl)pyrazol-1-yl)bicyclo[2.2.2]octane-1-carboxylic acid] | 10500 pM

The remaining lines, values ahead:

IC50 | Structure (SMILES)
339000 pM | CC(C)(C)C#CCN(CC(=O)c1c(Cl)cc(F)cc1Cl)C(=O)c1cnn([C@H]2CC[C@](C)(C(=O)O)CC2)c1C(F)(F)F [Example 218, trans-4-(4-((2-(2,6-dichloro-4-fluorophenyl)-2-oxoethyl)-(4,4-dimethylpent-2-ynyl)carbamoyl)-5-(trifluoromethyl)pyrazol-1-yl)-1-methylcyclohexane-1-carboxylic acid]
4900 pM | CC1(C)[C@@H]2C[C@H](N(CC(=O)c3c(Cl)cc(Cl)cc3Cl)C(=O)c3cnn([C@H]4CC[C@](C)(C(=O)O)CC4)c3C(F)(F)F)C[C@@H]21 [Example 219, trans-4-(4-(((1R,3r,5S)-6,6-dimethyl-3-bicyclo[3.1.0]hexanyl)-(2-oxo-2-(2,4,6-trichlorophenyl)ethyl)carbamoyl)-5-(trifluoromethyl)pyrazol-1-yl)-1-methylcyclohexane-1-carboxylic acid]
105000 pM | CC1(C)CCC(CN(CC(=O)c2c(Cl)cc(F)cc2Cl)C(=O)c2cnn([C@H]3CC[C@](C)(C(=O)O)CC3)c2C(F)(F)F)CC1 [Example 220, trans-4-(4-((2-(2,6-dichloro-4-fluorophenyl)-2-oxoethyl)-((4,4-dimethylcyclohexyl)methyl)carbamoyl)-5-(trifluoromethyl)pyrazol-1-yl)-1-methylcyclohexane-1-carboxylic acid]
2950 pM | CC(C)(C)CN(CC(=O)c1c(Cl)cc(Cl)cc1Cl)C(=O)c1cnn([C@H]2CC[C@](C)(C(=O)O)CC2)c1C(F)(F)F [Example 221, trans-4-(4-(2,2-dimethylpropyl-(2-oxo-2-(2,4,6-trichlorophenyl)ethyl)carbamoyl)-5-(trifluoromethyl)pyrazol-1-yl)-1-methylcyclohexane-1-carboxylic acid]
2690 pM | C[C@]1(C(=O)O)CC[C@H](n2ncc(C(=O)N(CC(=O)c3c(Cl)cc(F)cc3Cl)CC3(F)CCCC3)c2C(F)(F)F)CC1 [Example 224, trans-4-(4-((2-(2,6-dichloro-4-fluorophenyl)-2-oxoethyl)-((1-fluorocyclopentyl)methyl)carbamoyl)-5-(trifluoromethyl)pyrazol-1-yl)-1-methylcyclohexane-1-carboxylic acid]
2950 pM | C[C@]1(C(=O)O)CC[C@H](n2ncc(C(=O)N(CC(=O)c3c(Cl)cc(Cl)cc3Cl)CC3(F)CCCC3)c2C(F)(F)F)CC1 [Example 225, trans-4-(4-((1-fluorocyclopentyl)methyl-(2-oxo-2-(2,4,6-trichlorophenyl)ethyl)carbamoyl)-5-(trifluoromethyl)pyrazol-1-yl)-1-methylcyclohexane-1-carboxylic acid]
3390 pM | Cc1cc(Cl)c(C(=O)CN(CC23CCC(C)(CC2)O3)C(=O)c2cnn([C@H]3CC[C@](C)(C(=O)O)CC3)c2C(F)(F)F)c(Cl)c1 [Example 226, trans-4-(4-((2-(2,6-dichloro-4-methylphenyl)-2-oxoethyl)-((1-methyl-7-oxabicyclo[2.2.1]heptan-4-yl)methyl)carbamoyl)-5-(trifluoromethyl)pyrazol-1-yl)-1-methylcyclohexane-1-carboxylic acid]
10000 pM | C[C@]1(C(=O)O)CC[C@H](n2ncc(C(=O)N(CC(=O)c3c(Cl)cc(Cl)cc3Cl)CC3CC4(CC4)C3)c2C(F)(F)F)CC1 [Example 234, trans-4-(4-((2-oxo-2-(2,4,6-trichlorophenyl)ethyl)-(spiro[2.3]hexan-5-ylmethyl)carbamoyl)-5-(trifluoromethyl)pyrazol-1-yl)-1-methylcyclohexane-1-carboxylic acid]
